Assay results published in patent US20090221624A1, “4-AMINOQUINOLINE COMPOUNDS FOR TREATING VIRUS-RELATED CONDITIONS” (priority 2005, published 2009).

Assays:
[1] = system: HCV replicon (Clone A cells, Huh7, subgenomic hepatits C virus RNA); assay: HCV Neo screening assay (HCV replicon, NPTII ELISA); format: cell-based, hepatitis C virus; details: for EC50 / inhibition at 25 µM: Hepatitis C virus, Huh-7; for EC50: Secondary Data, HCV; for inhibition at 25 µM: primary screening, 25 μM final concentration, 24 hours, percent inhibition of viral replication, read-out: HCV Inh; for HCV TI: therapeutic index CC50/EC50, HCV
[2] = system: EBOV minigenome; assay: microbe, parasite or virus in culture; format: cell-based, Ebola virus; details: Zaire ebolavirus; for inhibition at 25 µM: 24 h, read-out: EBOV Inh; for EC50: read-out: EBOV EC50
[3] = system: WNV (WN-hRuPac cells); assay: WNV antiviral activity, WN-hRuPac cells, Renilla luciferase; format: cell-based, West Nile virus; details: for EC50 / inhibition at 25 µM: West Nile virus; for EC50: Secondary Data, WNV, read-out: WNV EC50; for inhibition at 25 µM: primary screening, 25 μM final concentration, 24 hours, percent inhibition of viral replication, read-out: WNV Inh; for WNV TI: therapeutic index CC50/EC50, WNV
[4] = system: YFV (YF-hRuPac cells); assay: microbe, parasite or virus in culture; format: cell-based, yellow fever virus; details: for inhibition at 25 µM / EC50: Yellow fever virus; for inhibition at 25 µM: 24 h, read-out: YFV Inh; for EC50: read-out: YFV EC50
[5] = system: SINV (SR19-F-luc cells); assay: SINV antiviral activity, SR19-F-luc cells, Firefly luciferase; format: cell-based; details: Sindbis virus; for inhibition at 25 µM: primary screening, 25 μM final concentration, 24 hours, percent inhibition of viral replication, read-out: SINV Inh; for EC50: secondary screening, SR19-F-luc cells
[6] = system: DNG (D2-hRuPac cells); assay: DNG antiviral activity, D2-hRuPac cells, Renilla luciferase; format: cell-based, Dengue fever virus; details: Dengue virus, secondary screening
[7] = in vitro
[8] = system: RSV minigenome; assay: RSV minigenome-dependent β-galactosidase expression assay (RSV β-Gal); format: cell-based, respiratory syncytial virus; details: for EC50 / inhibition at 25 µM: human respiratory syncytial virus; for EC50: Secondary Data, RSV, read-out: RSV EC50; for inhibition at 25 µM: primary screening, 25 μM final concentration, 24 hours, percent inhibition of viral replication, read-out: RSV Inh; for RSV TI: therapeutic index CC50/EC50, RSV

SMILES | inhibition at 25 µM [1] | inhibition at 25 µM [2] | EC50 [2] | EC50 [3] | inhibition at 25 µM [3] | WNV TI [3] | YFV TI [4] | inhibition at 25 µM [4] | EC50 [4] | inhibition at 25 µM [5] | EC50 [5] | EC50 [6] | CC50 ([7]; DNG CC50) | CC50 ([7]; EBOV CC50) | CC50 ([7]; RSV CC50) | CC50 ([7]; SINV CC50) | CC50 ([7]; WNV CC50) | CC50 ([7]; YFV CC50) | EC50 [8] | inhibition at 25 µM [8] | other results
CCOC(=O)c1cnc2c(OC)cccc2c1NC(C)c1ccccc1 (stereo not drawn) [Compound 71] | 80.1% | 90.1% | 29.5 µM | 13.9 µM | 24.7% | 3.55 | 0.84 | 71.2% | 58.5 µM | 49.1% | 5.52 µM | 37.2 µM | 49.3 µM | 49.3 µM | 49.3 µM | 49.3 µM | 49.3 µM | 49.3 µM | 4.47 µM | 93.3% | EC50 [1]: 8.95 µM; HCV TI [1]: 4.42; CC50 ([7]; HCV CC50): 39.6 µM; RSV TI [8]: 11.03
CCOC(=O)c1cnc2c(C)cc(C)cc2c1NCCCN(C)C [Compound 75] | 122% | 95.1% | 7.15 µM | 9 µM | 79.2% | 2.6 | 3.13 | 69.1% | 7.48 µM | 83.8% | 11 µM | 6.09 µM | 23.4 µM | 23.4 µM | 23.4 µM | 23.4 µM | 23.4 µM | 23.4 µM | 5.79 µM | 92.7% | EC50 [1]: 0.75 µM; HCV TI [1]: 14.4; CC50 ([7]; HCV CC50): 10.8 µM; RSV TI [8]: 4.04
CC(=O)c1cccc(Nc2cc(C)nc3c(C)cc(C)cc23)c1 [Compound 48] | 151% | 29.4% | 26.4 µM | 21.3 µM | 58.5% | 1.2 | 1.61 | 62.1% | 15.9 µM | 70.3% | 2.47 µM | 10.5 µM | 25.6 µM | 25.6 µM | 25.6 µM | 25.6 µM | 25.6 µM | 25.6 µM | 8.32 µM | 78% | EC50 [1]: 10 µM; HCV TI [1]: 1.41; CC50 ([7]; HCV CC50): 14.1 µM; RSV TI [8]: 3.08
CCOC(=O)c1cnc2ccc(C)cc2c1NCc1ccco1 [Compound 39] | 22.4% | 64.1% | 7.22 µM | 5.46 µM | 102% | 4.94 | 8.95 | 96.6% | 3.01 µM | 71.9% | ≥ 75 µM | 7.1 µM | 26.9 µM | 26.9 µM | 26.9 µM | 26.9 µM | 26.9 µM | 26.9 µM | 1.47 µM | 91.6% | CC50 ([7]; HCV CC50): ≥ 75 µM; RSV TI [8]: 18.33
Cc1ccc2nc3c(c(Nc4ccc(N5CCOCC5)cc4)c2c1)CCC3 [Compound 21] | 159% | 46.5% | 47.9 µM | 9.62 µM | 62.7% | 4.66 | 7.16 | 63.1% | 6.26 µM | 69.7% | 12.1 µM | 20.2 µM | 44.8 µM | 44.8 µM | 44.8 µM | 44.8 µM | 44.8 µM | 44.8 µM | 4.16 µM | 99.4% | EC50 [1]: 8.09 µM; HCV TI [1]: 0.99; CC50 ([7]; HCV CC50): 8.02 µM; RSV TI [8]: 10.77
CCOC(=O)c1cnc2ccc(OCC)cc2c1NCc1ccco1 [Compound 36] | 135% | 15.5% | 75 µM | 2.38 µM | 93.7% | 19.87 | 6.98 | 94.4% | 6.78 µM | -58.8% | ≥ 75 µM | 16.5 µM | 47.3 µM | 47.3 µM | 47.3 µM | 47.3 µM | 47.3 µM | 47.3 µM | 1.46 µM | 100% | EC50 [1]: 6 µM; HCV TI [1]: 3.55; CC50 ([7]; HCV CC50): 21.3 µM; RSV TI [8]: 32.4
COc1cccc2c(Nc3ccc4c(c3)OCCO4)cc(C)nc12 [Compound 22] | 55.1% | 72% | 5.31 µM | 22.4 µM | 48.8% | 2.56 | 0.76 | 29.9% | ≥ 75 µM | -22.7% | 72.3 µM | 35.6 µM | 57.2 µM | 57.2 µM | 57.2 µM | 57.2 µM | 57.2 µM | 57.2 µM | 3 µM | 75.1% | EC50 [1]: 18.1 µM; HCV TI [1]: 0.75; CC50 ([7]; HCV CC50): 13.7 µM; RSV TI [8]: 19.08
CCOc1ccc2nc(C)cc(Nc3ccc(C)c(Cl)c3)c2c1 [Compound 45] | 119% | 96.2% | 75 µM | 3.17 µM | 99% | 7.99 | 11.95 | 100% | 2.12 µM | 95.7% | 3.23 µM | 5.04 µM | 25.3 µM | 25.3 µM | 25.3 µM | 25.3 µM | 25.3 µM | 25.3 µM | 2.95 µM | 99.9% | EC50 [1]: 4.4 µM; HCV TI [1]: 1.06; CC50 ([7]; HCV CC50): 4.66 µM; RSV TI [8]: 8.59
Cc1cc(Nc2cccc(C(F)(F)F)c2)c2cc(Cl)ccc2n1 [Compound 40] | 96.1% | 26.3% | 75 µM | 8.39 µM | 65.6% | 7.15 | 9.3 | 79.6% | 6.45 µM | 69.5% | 14.4 µM | 40.6 µM | 60 µM | 60 µM | 60 µM | 60 µM | 60 µM | 60 µM | 2.43 µM | 99.3% | EC50 [1]: 5.55 µM; HCV TI [1]: 1; CC50 ([7]; HCV CC50): 5.53 µM; RSV TI [8]: 24.68
C=CCNc1c2c(nc3ccccc13)CCC2 [Compound 12] | 10.3% | 49.8% | 45.4 µM | 19.5 µM | 47.5% | 3.68 | 1.17 | 31.3% | 61.2 µM | 69.4% | 6.89 µM | 69.2 µM | 71.7 µM | 71.7 µM | 71.7 µM | 71.7 µM | 71.7 µM | 71.7 µM | 6.42 µM | 31% | CC50 ([7]; HCV CC50): 71 µM; RSV TI [8]: 11.17
CCCOC(=O)c1ccc(Nc2cc(C)nc3ccc(C(=O)OCC)cc23)cc1 [Compound 63] | 57.2% | 92% | 9.03 µM | 44.1 µM | 55% | 1.59 | 1.35 | 54.2% | 51.8 µM | 53.3% | ≥ 75 µM | 44.8 µM | 70.1 µM | 70.1 µM | 70.1 µM | 70.1 µM | 70.1 µM | 70.1 µM | 72.2 µM | 56.4% | RSV TI [8]: 0.97
c1coc(CNc2c3c(nc4ccccc24)CCC3)c1 [Compound 10] | 34.6% | 38.1% | 43.2 µM | 9.79 µM | 81.2% | 5.97 | 4.06 | 86.2% | 14.4 µM | 15.9% | 69.9 µM | 24.7 µM | 58.5 µM | 58.5 µM | 58.5 µM | 58.5 µM | 58.5 µM | 58.5 µM | 2.51 µM | 99.6% | CC50 ([7]; HCV CC50): 47.6 µM; RSV TI [8]: 23.29
